Laboratory results from patent US11724998B2, “PXR agonists and uses thereof for gut barrier dysfunction treatment and prevention” (Albert Einstein College of Medicine, priority 2017, dated 2023).

Columns and labels:
LXR, Liver X receptor = test: Nuclear receptor transactivation assay in Caco-2 cells (LXR); format: cell-based; conditions: FIG. 4
Protocol: (§1) FIG. 4. Nuclear Receptor transactivation assays in caco-2 (day 0) cells. Methods used are published (33). Assays were performed at least two times in triplicate CAR, constitutive androstane receptor; TCBOPOP, CAR ligand; LXR, Liver X receptor; T0901315, LXR ligand. n.s, not significant.
(§2) IPA/Indoles can have weak (˜2 fold) but important effects on the activation of other nuclear receptors (e.g., CAR, LXR) (33). […] Some receptors, specifically CAR and LXR, can act to induce liver steatosis (79, 83-86) and hepatocarcinogenesis (CAR) (80, 84, 87-89) and thus, avoiding excessive activation of these nuclear receptors in the context of PXR activation would be important. […] CDK5 (along with CDK2) are important kinases that phosphorylate and inhibit PXR activation (90). Accordingly, based on the data, it is unlikely that FKK5 activates PXR via inhibition of CDK5.

PXR = molecular target: T1, PXR (Homo sapiens, UniProt O75469); test: PXR activation (transactivation) luciferase assay in LS180 cells; format: cell-based; set-up: co-transfecting full-length expressing human PXR plasmid (91) and p3A4 luciferase reporter (92) in LS180 or Caco-2 cells; expressed in transfected cells; host or cells: LS180
T1 sequence (O75469 1-434): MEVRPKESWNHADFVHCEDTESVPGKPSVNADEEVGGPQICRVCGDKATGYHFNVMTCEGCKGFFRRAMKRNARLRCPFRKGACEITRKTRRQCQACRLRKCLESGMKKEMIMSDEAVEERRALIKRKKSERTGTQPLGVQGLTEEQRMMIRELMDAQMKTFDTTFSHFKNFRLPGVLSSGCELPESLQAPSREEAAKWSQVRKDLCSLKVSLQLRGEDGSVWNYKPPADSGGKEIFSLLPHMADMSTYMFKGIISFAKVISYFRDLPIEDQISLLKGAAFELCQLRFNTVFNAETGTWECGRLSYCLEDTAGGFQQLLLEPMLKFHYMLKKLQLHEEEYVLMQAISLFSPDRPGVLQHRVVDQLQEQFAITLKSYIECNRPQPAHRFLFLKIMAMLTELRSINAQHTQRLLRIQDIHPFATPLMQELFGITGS
Protocol: FIG. 6A-6E. Activation and inhibition studies with different FKK compounds. (A) PXR activation, LS180 cells (upper), and PXR inhibition, LS180 cells, co-incubation with RIF (lower). (B) AhR activation, AZ-AHR cells (upper), and AhR inhibition, AZ-AHR cells, co-incubation with TCDD (lower). (C) GR activation, AZ-GR cells (upper), and VDR activation, IZ-VDRE cells (lower). (D) TR activation, PZ-GR cells (upper), and AR activation, AIZ-AR cells (lower). (E) Displacement of radiolabeled 9-cis-retinoic acid (RA) by FKK compounds.
Two molecules that were readily available (Ryan Scientific: FKK999 & BAS451) were purchased and tested in vitro for PXR activation using a HepG2 reporter assay. […] […]. […] In general, reporter cell lines are efficient ways to screen for PXR ligands (72). In the LS180 intestinal cell line, the PXR activation assay involves a transient transfection system using a specific PXR plasmid and reporter plasmid (CVmax % 11.2+2; CVmid % 10.8+0.1.4; Signal Window 6.2+1.1; Z′ factor 0.51+0.005).
All the synthesized compounds and intermediates were tested for their potential to activate PXR and/or AhR via luciferase assays. The PXR activation assays were performed by co-transfecting full-length expressing human PXR plasmid (91) and p3A4 luciferase reporter (92) in LS180 or Caco-2 cells. AhR activation conducted using stably co-transfected HepG2 reporter cells as previously described (93). […] With the exception of FKK6, there was no significant inhibition of TCDD-induced AhR activation. […] Independent verification of AhR activity of randomly selected compounds—FKK 5, 6 and 9—was performed in a separate laboratory (GHP). Nuclear receptor selectivity was assessed for FKK compounds for GR, ADR, TR and AR using cell-based luciferase assays previously described (93-102). There was no observed biologically significant (>2-fold) induction of nuclear receptor activity (FIG. 6C). RXR ligand displacement is only significant for FKK1 and FKK8 (FIG. 6D).

[1] = system: CAR, constitutive androstane receptor; test: Nuclear receptor transactivation assay in Caco-2 cells (CAR); format: cell-based; conditions: FIG. 4
Protocol: as §1, §2

CDK5/p25 enzyme = CDK5/p25 enzyme (Homo sapiens, UniProt Q00535); test: ADP-Glo kinase assay with CDK5/p25 enzyme; format: biochemical; conditions: up to 20 μM
Protocol: FIG. 5. ADP-Glo kinase with CDK5/p25 enzyme. Michaelis-Menton fit of RLU values across FKK5 concentrations after enzyme and time of incubation was optimized. The fit is nearly similar with one curve describing all concentration effects. Km˜0.01483; Ki˜4.656e+099; Vmax˜53380.
as §2

AhR = molecular target: T2, AhR (Homo sapiens, UniProt P35869); test: HTS nuclear receptor activation screen using LS180 cells (AhR); format: cell-based; conditions: data not shown
T2 sequence (P35869 11-848): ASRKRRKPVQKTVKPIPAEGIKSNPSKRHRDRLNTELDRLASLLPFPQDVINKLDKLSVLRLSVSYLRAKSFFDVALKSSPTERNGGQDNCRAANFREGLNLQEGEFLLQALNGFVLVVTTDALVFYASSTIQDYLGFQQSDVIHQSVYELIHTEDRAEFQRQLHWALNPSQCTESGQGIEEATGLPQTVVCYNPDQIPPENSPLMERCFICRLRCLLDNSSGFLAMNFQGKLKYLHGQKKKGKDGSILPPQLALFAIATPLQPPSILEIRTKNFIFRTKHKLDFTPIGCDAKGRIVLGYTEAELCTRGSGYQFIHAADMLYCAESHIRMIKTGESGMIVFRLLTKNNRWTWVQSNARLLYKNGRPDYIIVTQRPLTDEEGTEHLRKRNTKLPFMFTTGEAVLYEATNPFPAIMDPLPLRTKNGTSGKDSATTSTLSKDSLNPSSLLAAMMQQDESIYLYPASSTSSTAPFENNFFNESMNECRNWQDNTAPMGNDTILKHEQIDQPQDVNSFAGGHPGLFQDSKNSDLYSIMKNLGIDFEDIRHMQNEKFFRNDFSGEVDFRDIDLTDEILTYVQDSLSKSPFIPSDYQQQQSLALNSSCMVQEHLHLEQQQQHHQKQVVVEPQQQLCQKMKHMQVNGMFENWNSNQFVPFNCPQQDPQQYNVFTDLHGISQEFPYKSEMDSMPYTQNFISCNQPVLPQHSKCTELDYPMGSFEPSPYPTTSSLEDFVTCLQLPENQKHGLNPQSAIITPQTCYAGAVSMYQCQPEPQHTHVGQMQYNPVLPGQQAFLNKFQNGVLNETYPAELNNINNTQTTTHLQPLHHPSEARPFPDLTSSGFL

Sequence of CDK5/p25 enzyme (Q00535 whole entry, species assumed): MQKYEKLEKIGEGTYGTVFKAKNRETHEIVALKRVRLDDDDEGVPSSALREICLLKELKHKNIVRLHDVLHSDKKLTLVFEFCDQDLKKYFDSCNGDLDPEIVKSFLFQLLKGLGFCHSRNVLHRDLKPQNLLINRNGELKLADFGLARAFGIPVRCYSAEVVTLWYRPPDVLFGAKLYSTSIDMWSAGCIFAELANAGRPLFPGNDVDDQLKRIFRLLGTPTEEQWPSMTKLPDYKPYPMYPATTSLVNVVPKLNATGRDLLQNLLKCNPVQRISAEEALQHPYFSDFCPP
Sequence of CDK5/p25 enzyme (Q15078 99-307 partner limits assumed, species assumed): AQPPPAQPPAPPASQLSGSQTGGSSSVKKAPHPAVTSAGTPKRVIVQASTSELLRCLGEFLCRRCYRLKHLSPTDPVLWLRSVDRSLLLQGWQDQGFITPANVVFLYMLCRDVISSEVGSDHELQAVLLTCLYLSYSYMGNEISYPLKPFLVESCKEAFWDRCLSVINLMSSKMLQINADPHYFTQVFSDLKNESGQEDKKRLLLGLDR

O=C(c1ccncc1)c1cc2ccccc2n1S(=O)(=O)c1ccccc1 [FKK5]
LXR activation (LXR, Liver X receptor): does not activate
EC50 (PXR): 1.68 µM
Emax (PXR; read-out: Emax/Emax[rifampicin, positive control]): 128%
CAR activation [1]: does not activate
CAR function with increasing concentrations [1]: CAR function is inhibited
inhibition of CDK5/p25 enzyme (CDK5/p25 enzyme): does not inhibit
AhR activation (AhR): not AhR
